Results reported in patent publication US20050155093A1, “Rabbit nuclear cloning method and uses thereof” (Institute National de Ia Recherche Agronomique, priority 2002, published 2005).
Where “and” joins values, the source holds several entries; their conditions need not be identical. Identical values can stand only once.

Tested on: rabbit MII oocytes
Assay: In vitro development after parthenogenic activation of rabbit oocytes (electrical activation, then incubation in M199 with drug)
Assay type: cell-based
Method: Metaphase II (MII) oocytes are collected from superovulated “New Zealand” rabbits by injections of FSH hormones followed by an injection of HCG hormone, mated with a vasectomized male 16 hours after injection of human choriogonadotrophin (hCG). The oocytes are then incubated in 0.5% hyaluronidase for 15 min (Sigma) in order to remove the cumulus cells by gentle pipeting. For the nuclear transfer, the oocytes are enucleated as previously described (Adenot et al., 1997). Simultaneously, cumulus cells are collected either from rabbits of “New Zealand” breed or from F1 rabbits obtained by a cross between rabbits of “New Zealand” breed crossed with rabbits of “Fauves de Bourgogne” breed or “New Zealand” transgenic F1 female rabbits containing a DNA construct with a sequence encoding the enhanced green fluorescence protein (eGFP) placed under the control of an EF1 (“elongation factor 1”) promoter or of an HMG promoter. The eGFP fluorescence and the PCR amplification reactions are used as markers for the cumulus donor cells. The cumulus cells are then stored at 38° C. in PBS without calcium or magnesium supplemented with 1% PVP 40 000 (polyvinylpyrrolidone (PVP)) which are then used as nucleus donor cells.
To reconstruct the embryos by nuclear transfer (NT), individual cumulus cells are inserted by micromanipulation into the zona pellucida of the enucleated oocytes. The embryos obtained by nuclear transfer (NT embryos) and the MII oocytes are activated in the following manner: 2 phases of electrical stimulations are applied 1 hour apart with a Grass stimulator (3 pulses of continuous current of 3.2 kV×cm^−1 for 20 μs each in 0.3 M mannitol containing 0.1 mM of Ca^2+ and of Mg^2+), the first phase inducing the fusion of the oocyte and of the cumulus cell. The reconstituted embryos are maintained for one hour in a culture medium at 38° C. […] After extensive washing to remove the drugs, the cells are again placed in culture in a microdrop of 50 μl of B2 medium supplemented with 2.5% fetal calf serum (FCS) in mineral oil (Sigma M8410) at 38° C. under an atmosphere saturated with 5% CO2. This activation protocol is applied to the NT embryos about 18 to 20 hours after mating of the donors.
The microtubular organization and the chromatin in the NT embryos at the 1 cell stage are observed as previously described (Adenot et al., 1997), except that the fixing state lasts for 20 min at 37° C. and that the mounting medium is Vectashield (Vector Laboratories). The rates of cleavage of the NT embryos and of the parthenotes are evaluated from 21 hours to 23 hours after electrostimulation. The rates of development up to the blastocyst stage are estimated after an in vitro culture of 3 to 4 days. For the evaluation of the number of cells, the embryos are fixed as previously described, and then stained with Hoechst […] at 1 μg/ml and then mounted on slides with wells in Vectashield and analyzed by epifluorescence. The controls are blastocysts which either developed in vitro from a 1 cell embryo collected from a superovulated rabbit or which developed in vivo from nonsuperovulated females crossed with a male and then sacrificed 3 or 4 days later.

[1] = 30 min incubation in M199 + drug after electrical activation
[2] = 1 h incubation in M199 + drug after electrical activation
[3] = 1 h incubation in M199 + drug after electrical activation, cleavage at 2 cell stage
[4] = 4 h incubation in M199 + drug after electrical activation

CN(C)c1ncnc2nc[nH]c12 [6-DMAP, 6-dimethylaminopurine]
Number of blastocysts [1]: 32
Number of cleaved oocytes [1]: 43
blastocysts (%) [1]: 66.7%
cleaved oocytes (%) [1]: 89.6%
Number of blastocysts [2]: 38 and 35
Number of cleaved oocytes [2]: 46 and 47
blastocysts (%) [2]: 72.9%
cleaved oocytes (%) [3]: 96% and 95.8% and 97.9%

C[C@@H]1C[C@@H]([C@H](O)CC2CC(=O)NC(=O)C2)C(=O)[C@@H](C)C1 [CHX, cycloheximide]
Number of blastocysts [1]: 19
Number of cleaved oocytes [1]: 41
blastocysts (%) [1]: 39.6%
cleaved oocytes (%) [1]: 85.4%
Number of blastocysts [2]: 24
Number of cleaved oocytes [2]: 45
blastocysts (%) [2]: 50%
cleaved oocytes (%) [3]: 94% and 93.7%
Number of blastocysts [4]: 25
Number of cleaved oocytes [4]: 47
blastocysts (%) [4]: 52.1%
cleaved oocytes (%) [4]: 97.9%
